These are literature values, as cited in article PMC3066546, “Development of modified nucleosides that have supremely high anti-HIV activity and low toxicity and prevent the emergence of resistant HIV mutants” (Proceedings of the Japan Academy. Series B, Physical and …, 2011).

Data set [1] has as its system HIV-1LAI. To be noted: MTT assay, MT-4 cells. Background: Tetrazolium assays rely on reduction of a dye to a coloured formazan, in cell work by metabolically active cells.
Data set [2] deals with MT-4 cells.
Data set [3] deals with other cells.
For data set [4], the system named is HIV. Particulars: 24 h after removal of extracellular drug, MT4 cells and MAGI cells cultured with 0.1 µM.
In data set [5] the test system is HIV-1 M184V. Also on record: method as in PMID 563233, PMID 17548498, PMID 18487070. To be noted: Table 6.
Data set [6] deals with HIV-1wild. Set-up: method as in PMID 18487070. To be noted: Table 7; read-out: Anti-HIV activity (MAGI assay, µg) HIV-1wild.
Details of data set [7]: method as in PMID 563233, PMID 17548498, PMID 18487070. Particulars: 120 min, acidic conditions of gastric juices (pH 1.06), 24 ℃.
The subject of data set [8] is adenosine deaminase. Set-up: method as in PMID 563233, PMID 17548498, PMID 18487070. Particulars: conditions where 4′EdA was completely deaminated in 60 min.
The test system of data set [9] is HIV-1 MDR. Also on record: method as in PMID 563233, PMID 17548498, PMID 18487070. Particulars: Table 6.
The conditions of data set [10]: Table 6.
In data set [11] the test system is ICR mice.
Data set [12] has as its system HIV-1 Wild-type. Also on record: method as in PMID 563233, PMID 17548498, PMID 18487070. Particulars: Table 6.
In data set [13] the test system is HIV-1MDR. Also on record: method as in PMID 18487070. To be noted: Table 7; read-out: Anti-HIV activity (MAGI assay, µg) HIV-1MDR.
The conditions of data set [14]: CEM cells, MT4 cells, MAGI-CCR5 cells.
Data set [15] concerns the target DNA polymerase α. Particulars: read-out: EC50 against DNA polymerase α.
Data set [16] concerns the target DNA polymerase β. Particulars: read-out: EC50 against DNA polymerase β.
The target in data set [17] is human mitochondrion DNA polymerase (DNA polymerase γ). Also on record: method as in PMID 17548498, PMID 18487070. To be noted: read-out: EC50 to inhibit the incorporation of dATP.
The test system of data set [18] is multi-drug resistant HIV mutant.
The test system of data set [19] is M184V-mutant.
The test system of data set [20] is wild-type HIV.
For data set [21], the system named is HIV-1M184V. Also on record: method as in PMID 18487070. To be noted: Table 7; read-out: Anti-HIV activity (MAGI assay, µg) HIV-1M184V.
The subject of data set [22] is HIV. Set-up: method as in PMID 15456247.
In data set [23] the test system is RT of the M184V mutant. Set-up: method as in PMID 15456247. Particulars: 4′EddCTP compared with RT of wild-type HIV.
For data set [24], the system named is RT of wild-type HIV. Set-up: method as in PMID 15456247. To be noted: compared with AZTTP.
Data set [25] relates to HXB2 (wild type HIV). Set-up: method as in PMID 11087576, PMID 11577734, PMID 15200030. To be noted: MAGI assay.
The test system of data set [26] is L74V drug-resistant HIV. Also on record: method as in PMID 11087576, PMID 11577734, PMID 15200030. Particulars: MAGI assay.
The target of data set [27] is Y181C (non-nucleoside reverse transcriptase inhibitor-resistant). Also on record: method as in PMID 11087576, PMID 11577734, PMID 15200030. Particulars: MAGI assay.
For data set [28], the system named is 41/215 drug-resistant HIV. Set-up: method as in PMID 11087576, PMID 11577734, PMID 15200030. Particulars: MAGI assay.
The test system of data set [29] is Hela cells.
Data set [30] concerns MDR (multidrug-resistant HIV). Particulars: MAGI assay.
The subject of data set [31] is M184I drug-resistant HIV. Set-up: method as in PMID 11087576, PMID 11577734, PMID 15200030. To be noted: MAGI assay.
For data set [32], the system named is 41/69/ 125/SG drug-resistant HIV. Set-up: method as in PMID 11087576, PMID 11577734, PMID 15200030. To be noted: MAGI assay.
For data set [33], the system named is HIV. Also on record: method as in PMID 7764216. To be noted: anti-HIV, Table 1.
For data set [34], the system named is M184V drug-resistant HIV. Set-up: method as in PMID 11087576, PMID 11577734, PMID 15200030. To be noted: MAGI assay.
The test system of data set [35] is KH65R drug-resistant HIV. Also on record: method as in PMID 11087576, PMID 11577734, PMID 15200030. Particulars: MAGI assay.

The structures appear in SMILES notation. Like-named read-outs stand apart in the source and are kept apart here.

Turning to `C#C[C@]1(CO)O[C@@H](n2cc(F)c(N)nc2=O)C[C@@H]1O` [4′-C-ethynyl-2′-deoxy-5-fluorocytidine], the EC50 in data set [1] (Table 2) is 30 nM. In [2] (Table 2), the CC50 was over 100000 nM. The “toxicity with other cells” value in data set [3] is recorded as “toxic”.

On to `C#C[C@]1(CO)O[C@@H](n2cnc3c(N)nc(F)nc32)C[C@@H]1O` [4′Ed2FA, 2′-deoxy-4′-C-ethynyl-2-fluoroadenosine], for which the “cells protected against the infection of HIV” value in [4] is recorded as “About 50%”. Further, the EC50 in data set [5] is 3.1 nM; in [6] it was 0.2 nM; in data set [9], 0.15 nM; in data set [12] it was 0.068 nM; in data set [13], 0.14 nM. In addition, the part decomposed in data set [7] is 3%. In [8], the “stability to adenosine deaminase” value is given as “completely stable”. The CC50 in data set [10] was 7500 nM. For the same compound, the Survivors/total in [11] (i.v., single dosage 1 mg Kg−1, ICR mice) is 8/8; in [11] (i.v., single dosage 3 mg Kg−1, ICR mice), 8/8; in data set [11] (i.v., single dosage 10 mg Kg−1, ICR mice), 8/8; in data set [11] (i.v., single dosage 30 mg Kg−1, ICR mice), 8/8; in data set [11] (i.v., single dosage 100 mg Kg−1, ICR mice) it was 8/8; in data set [11] (p.o, single dosage 1 mg Kg−1, ICR mice), 8/8. The Survivors/total in [11] (p.o, single dosage 3 mg Kg−1, ICR mice) is recorded as 8/8; in data set [11] (p.o, single dosage 10 mg Kg−1, ICR mice) it was 8/8; in data set [11] (p.o, single dosage 30 mg Kg−1, ICR mice) it was 8/8; in [11] (p.o, single dosage 100 mg Kg−1, ICR mice), 8/8. Moreover, the “acute toxicity to mice” value in data set [11] (oral or intravenous administration up to 100 mg kg−1) was “did not show any acute toxicity”.

For the compound `C#C[C@]1(COP(=O)(O)OP(=O)(O)OP(=O)(O)O)O[C@@H](n2cnc3c(N)nc(F)nc32)C[C@@H]1O` [4′Ed2FATP, 2′-deoxy-4′-C-ethynyl-2-fluoroadenosine-5-O-triphosphate], the “intracellular half-life (T1/2)” value in [14] is about 18 h. The EC50 in data set [15] is over 200000 nM; in data set [16] it was over 200000 nM; in data set [17], 10000 nM.

As to `C#C[C@@]1(CO)C=C[C@H](n2cc(C)c(=O)[nH]c2=O)O1` [4′Ed4T, 4′-C-ethynyl-2′,3′-didehydro-3′-deoxythymidine], the “potency against multi-drug resistant HIV mutant compared with d4T” value in data set [18] is listed as “more potent”. For the same compound, the “potency against M184V-mutant compared with d4T” value in data set [19] is listed as “a little less potent”. Further, the EC50 was 1500 nM in data set [6], 17000 nM in data set [21] and 1100 nM in [13]. In [20], the “potency against wild-type HIV compared with d4T” value is given as “more potent”.

For `C#C[C@@]1(CO)CC[C@H](n2ccc(N)nc2=O)O1` [4′EddC, 4′-C-ethynyl-2′,3′-dideoxycytidine], the “activity against HIV in cellular systems” value in data set [22] was “inactive”.

Consider `C#CC1(COP(=O)(O)OP(=O)(O)OP(=O)(O)O)CCC(n2ccc(N)nc2=O)O1` (stereo not shown) [4′EddCTP], for which the “activity against RT of the M184V mutant” value in [23] was “much less active”. The “activity against the RT of wild-type HIV” value in [24] is recorded as “more active”.

Consider `Cc1cn([C@H]2C[C@H](N=[N+]=[N-])[C@@H](CO)O2)c(=O)[nH]c1=O` [AZT, 3′-azido-3′-deoxythymidine, reference compound], for which the EC50 in data set [25] was 22 nM; in data set [1] (Table 2), 3.2 nM; in data set [1] (Table 3) it was 3.2 nM; in data set [26], 20 nM; in [27], 14 nM; in data set [5], 16 nM. Besides, the EC50 was 300 nM in data set [28]; 170 nM in data set [6]; 15300 nM in data set [30]; 17 nM in data set [31]; 1600 nM in data set [32]; 3.2 nM in data set [12]. The EC50 in [33] was 1 nM; in data set [34], 10 nM; in [21], 130 nM; in data set [13] it was 74300 nM; in [35] it was 20 nM. In addition, the results for the CC50 in data set [2] and in [29] were 29400 nM and over 100000 nM, respectively.
